Test [1] deals with Nucleic Acid. The test can be described thus: Induction of DNA cleavage in supercoiled pGL2 DNA assessed as open circular DNA form-2 under hypoxic condition with NADPH:cytochrome P450 enzyme system at 5 to 25 uM after 16 hrs by agarose gel electrophoresis. Format: nucleic-acid assay.
For test [2], the system named is Nucleic Acid. In words: Induction of DNA cleavage in supercoiled pGL2 DNA assessed as open circular DNA form-2 under hypoxic condition with NADPH:cytochrome P450 enzyme system at 25 uM after 16 hrs by agarose gel electrophoresis in presence of radical scavenging agent methanol. Format: nucleic-acid assay.
Test [3] relates to Nucleic Acid. The test can be described thus: Induction of DNA cleavage in supercoiled pGL2 DNA assessed as open circular DNA form-2 under hypoxic condition with NADPH:cytochrome P450 enzyme system at 25 uM after 16 hrs by agarose gel electrophoresis in presence of radical scavenging agent ethanol. Format: nucleic-acid assay.
The test system of test [4] is Nucleic Acid. The test can be described thus: Induction of DNA cleavage in supercoiled pGL2 DNA assessed as open circular DNA form-2 under hypoxic condition with NADPH:cytochrome P450 enzyme system at 25 uM after 16 hrs by agarose gel electrophoresis in presence of radical scavenging agent t-butanol. Format: nucleic-acid assay.
In test [5] the test system is Nucleic Acid. In words: Induction of DNA cleavage in supercoiled pGL2 DNA assessed as open circular DNA form-2 under hypoxic condition with NADPH:cytochrome P450 enzyme system at 25 uM after 16 hrs by agarose gel electrophoresis in presence of radical scavenging agent DMSO. Format: nucleic-acid assay.
Test [6] deals with Nucleic Acid. The test can be described thus: Induction of DNA cleavage in supercoiled pGL2 DNA assessed as open circular DNA form-2 under hypoxic condition with NADPH:cytochrome P450 enzyme system at 25 uM after 16 hrs by agarose gel electrophoresis in presence of radical scavenging agent mannitol. Format: nucleic-acid assay.
Test [7] concerns Nucleic Acid. In words: Induction of DNA cleavage in supercoiled pGL2 DNA assessed as open circular DNA form-2 under hypoxic condition with xanthine/xanthine oxidase enzyme system at 20 uM after 16 hrs by agarose gel electrophoresis. Format: nucleic-acid assay.
Test [8] concerns V79. In words: Cytotoxicity against chinese hamster V79 cells under aerobic condition at 2.5 uM after 7 days by crystal violet staining. Format: functional, Cricetulus griseus.
In test [9] the test system is V79. The test can be described thus: Cytotoxicity against chinese hamster V79 cells under anaerobic condition at 0.21 uM after 7 days by crystal violet staining. Format: functional, Cricetulus griseus.
Test [10] concerns V79. The test can be described thus: Hypoxic cytotoxicity ratio, concentration required to kill 99% chinese hamster V79 cells under aerobic condition to hypoxic condition. Format: functional, Cricetulus griseus.
For test [11], the system named is V79. In words: Cytotoxicity against chinese hamster V79 cells under aerobic condition at 30 uM after 7 days by crystal violet staining. Format: functional, Cricetulus griseus.
For test [12], the system named is V79. The test can be described thus: Cytotoxicity against chinese hamster V79 cells under anaerobic condition at 2.0 uM after 7 days by crystal violet staining. Format: functional, Cricetulus griseus.

Each structure is given as a SMILES string. Active and inactive are the calls of the source. The calls are words filed in the database; no cut-off is given here.

In the case of `O=C(c1cccs1)c1nc2cc(Cl)ccc2[n+]([O-])c1C(F)(F)F`, in the test on Nucleic Acid [1], the outcome was inactive.

On to `O=C(c1cccs1)c1c(C(F)(F)F)[n+]([O-])c2ccc(Cl)cc2[n+]1[O-]`, for which the outcome with Nucleic Acid [1] and in the test on Nucleic Acid [7] was Active. Further, the outcome in the test with Nucleic Acid [2], in the test on Nucleic Acid [3], in the test with Nucleic Acid [4], in the test on Nucleic Acid [5] and with Nucleic Acid [6] was inactive. The Activity with V79 [8] and with V79 [9] was 99% in each case. In addition, the Ratio in the test on V79 [10] worked out at 16.

For the compound `O=C(c1cccs1)c1c(C(F)(F)F)nc2ccc(Cl)cc2[n+]1[O-]`, the outcome in the test with Nucleic Acid [1] was inactive.

As for `Nc1n[n+]([O-])c2ccccc2[n+]1[O-]` [TIRAPAZAMINE], the Activity in the test on V79 [11] and with V79 [12] was 99% each time. Also, in the test on V79 [10], the Ratio turned out to be 75.

The record behind these values is ChEMBL document CHEMBL1158531, “DNA strand cleaving properties and hypoxia-selective cytotoxicity of 7-chloro-2-thienylcarbonyl-3-trifluoromethylquinoxaline 1,4-dioxide” (2010).
